Data: ChEMBL document CHEMBL5131537 (J Med Chem, 2022)

Tests used:
[1] = Acute toxicity in 12 hr fasted male CD-1(ICR) mouse assessed as behavioral abnormalities at 2 g/kg, IG administered as single dose measured after 14 days; details: in vivo, po, 2000 mg/kg, 336 h, time 14 day
Cytochrome P450 3A4 = Cytochrome P450 3A4 (Homo sapiens, UniProt P08684); experiment: Inhibition of CYP3A4 in human liver microsomes using midazolam as substrate incubated for 15 to 45 mins in presence of NADPH
[2] = Acute toxicity in 12 hr fasted female CD-1(ICR) mouse assessed as pathological damage in spleen at 2 g/kg, IG administered as single dose measured after 14 days by H and E staining based analysis; type: tissue-based; details: in vivo, po, 2000 mg/kg, 336 h, time 14 day
[3] = test system: Human immunodeficiency virus 1; experiment: Antiviral activity against HIV-1 IIIB harboring reverse transcriptase K103N mutant infected in human MT4 cells by MTT assay; type: functional, organism-based; details: Human immunodeficiency virus 1, IIIB
[4] = Acute toxicity in 12 hr fasted male CD-1(ICR) mouse assessed as pathological damage in spleen at 2 g/kg, IG administered as single dose measured after 14 days by H and E staining based analysis; type: tissue-based; details: in vivo, po, 2000 mg/kg, 336 h, time 14 day
[5] = Acute toxicity in 12 hr fasted female CD-1(ICR) mouse assessed as animal death at 2 g/kg, IG administered as single dose measured after 14 days; details: in vivo, po, 2000 mg/kg, 336 h, time 14 day
[6] = Acute toxicity in 12 hr fasted male CD-1(ICR) mouse assessed as changes in body weight at 2 g/kg, IG administered as single dose measured after 14 days; details: in vivo, po, 2000 mg/kg, 336 h, time 14 day
[7] = MRT (0 to infinity) in Sprague-Dawley rat at 1 mg/kg, iv measured after 0.083 to 24 hrs by LC-MS analysis; type: ADME, organism-based; details: in vivo, time 0.083-24 hrs
[8] = Acute toxicity in 12 hr fasted male CD-1(ICR) mouse assessed as animal death at 2 g/kg, IG administered as single dose measured after 14 days; details: in vivo, po, 2000 mg/kg, 336 h, time 14 day
[9] = Tmax in Sprague-Dawley rat at 1 mg/kg, iv measured after 0.083 to 24 hrs by LC-MS analysis; type: ADME, organism-based; details: in vivo, time 0.083-24 hrs
[10] = Acute toxicity in 12 hr fasted female CD-1(ICR) mouse assessed as behavioral abnormalities at 2 g/kg, IG administered as single dose measured after 14 days; details: in vivo, po, 2000 mg/kg, 336 h, time 14 day
[11] = Acute toxicity in 12 hr fasted female CD-1(ICR) mouse assessed as pathological damage in liver at 2 g/kg, IG administered as single dose measured after 14 days by H and E staining based analysis; type: tissue-based; details: in vivo, po, 2000 mg/kg, 336 h, time 14 day
[12] = Cmax in Sprague-Dawley rat at 1 mg/kg, iv measured after 0.083 to 24 hrs by LC-MS analysis; type: ADME, organism-based; parameters: time upper 24 hrs, dose 1 mg/kg, time lower 0.083 hrs, route iv; details: in vivo
[13] = Acute toxicity in 12 hr fasted male CD-1(ICR) mouse assessed as pathological damage in kidney at 2 g/kg, IG administered as single dose measured after 14 days by H and E staining based analysis; type: tissue-based; details: in vivo, po, 2000 mg/kg, 336 h, time 14 day
hERG (KCNH2) = hERG (KCNH2) (Homo sapiens, UniProt Q12809); experiment: Inhibition of human ERG potassium channel transfected in CHO cells at 40 uM by automated patch clamp assay; type: toxicity, cell-based; details: CHO cells transfected with hERG
Chain of hERG (KCNH2) (Q12809 whole entry): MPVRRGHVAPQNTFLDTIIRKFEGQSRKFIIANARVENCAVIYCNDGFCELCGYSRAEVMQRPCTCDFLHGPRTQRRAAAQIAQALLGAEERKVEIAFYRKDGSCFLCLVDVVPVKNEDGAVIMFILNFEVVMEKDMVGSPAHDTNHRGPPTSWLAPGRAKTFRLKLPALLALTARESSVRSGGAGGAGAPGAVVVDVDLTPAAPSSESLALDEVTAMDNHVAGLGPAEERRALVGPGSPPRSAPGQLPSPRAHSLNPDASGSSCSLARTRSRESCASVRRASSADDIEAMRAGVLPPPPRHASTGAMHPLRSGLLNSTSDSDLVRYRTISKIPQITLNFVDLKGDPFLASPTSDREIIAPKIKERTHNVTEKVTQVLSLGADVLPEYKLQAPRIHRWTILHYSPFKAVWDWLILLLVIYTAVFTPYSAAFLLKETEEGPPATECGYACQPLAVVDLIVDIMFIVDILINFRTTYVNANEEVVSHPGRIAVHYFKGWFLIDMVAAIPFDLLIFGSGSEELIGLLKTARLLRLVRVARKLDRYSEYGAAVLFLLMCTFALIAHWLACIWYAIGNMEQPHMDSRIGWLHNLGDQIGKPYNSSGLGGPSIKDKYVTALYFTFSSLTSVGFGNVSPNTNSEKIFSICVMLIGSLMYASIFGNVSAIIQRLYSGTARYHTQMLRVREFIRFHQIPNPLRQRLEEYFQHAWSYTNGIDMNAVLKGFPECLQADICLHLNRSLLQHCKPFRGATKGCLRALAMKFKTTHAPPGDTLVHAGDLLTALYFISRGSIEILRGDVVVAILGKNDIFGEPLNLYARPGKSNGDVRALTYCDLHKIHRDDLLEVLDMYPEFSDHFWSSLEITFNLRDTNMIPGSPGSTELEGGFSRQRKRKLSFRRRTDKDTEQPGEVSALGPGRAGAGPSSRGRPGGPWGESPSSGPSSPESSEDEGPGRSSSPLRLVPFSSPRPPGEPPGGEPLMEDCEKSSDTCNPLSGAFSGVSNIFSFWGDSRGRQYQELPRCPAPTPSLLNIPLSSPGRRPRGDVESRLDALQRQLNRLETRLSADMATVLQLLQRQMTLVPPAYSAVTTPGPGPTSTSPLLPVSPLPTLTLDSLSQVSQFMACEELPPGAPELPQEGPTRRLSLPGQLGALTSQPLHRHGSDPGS

[14] = AUC (0 to t) in Sprague-Dawley rat at 1 mg/kg, iv measured after 0.083 to 24 hrs by LC-MS analysis; type: ADME, organism-based; parameters: time upper 24 hrs, dose 1 mg/kg, time lower 0.083 hrs, route iv; details: in vivo
[15] = Half life in Sprague-Dawley rat at 1 mg/kg, iv measured after 0.083 to 24 hrs by LC-MS analysis; type: ADME, organism-based; details: in vivo, time 0.083-24 hrs
[16] = test system: Human immunodeficiency virus 1; experiment: Antiviral activity against HIV-1 IIIB harboring reverse transcriptase […] mutant infected in human MT4 cells by MTT assay; type: functional, organism-based; details: Human immunodeficiency virus 1, IIIB
in vitro = details: human, MT4 cells
Description: Selectivity index, ratio of CC50 for cytotoxicity against human MT4 cells to EC50 for antiviral activity against wild type HIV-1 IIIB infected in human MT4 cells

[17] = Acute toxicity in 12 hr fasted male CD-1(ICR) mouse assessed as pathological damage in lung at 2 g/kg, IG administered as single dose measured after 14 days by H and E staining based analysis; type: tissue-based; details: in vivo, po, 2000 mg/kg, 336 h, time 14 day
[18] = test system: Human immunodeficiency virus 1; experiment: microbe, parasite or virus in culture; details: Human immunodeficiency virus 1, IIIB, MT4
Description: Antiviral activity against wild type HIV-1 IIIB infected in human MT4 cells assessed as protection against virus-induced cytopathic effect by MTT assay

[19] = Cytotoxicity against human MT4 cells assessed as reduction in cell viability by MTT assay; type: toxicity, cell-based
[20] = biological target: Human immunodeficiency virus type 1 reverse transcriptase (Human immunodeficiency virus 1, UniProt Q72547)
Description: Inhibition of HIV-1 reverse transcriptase using oligo(dT)16 as primer measured after 40 mins by picogreen-dye based spectrofluorometric analysis

[21] = Oral bioavailability in Sprague-Dawley rat at 5 mg/kg measured after 0.083 to 24 hrs by LC-MS analysis; type: ADME, organism-based; details: in vivo, time 0.083-24 hrs
[22] = Acute toxicity in 12 hr fasted male CD-1(ICR) mouse assessed as pathological damage in heart at 2 g/kg, IG administered as single dose measured after 14 days by H and E staining based analysis; type: tissue-based; details: in vivo, po, 2000 mg/kg, 336 h, time 14 day
[23] = AUC (0 to infinity) in Sprague-Dawley rat at 5 mg/kg, po measured after 0.083 to 24 hrs by LC-MS analysis; type: ADME, organism-based; parameters: time upper 24 hrs, dose 5 mg/kg, time lower 0.083 hrs, route po; details: in vivo
[24] = Acute toxicity in 12 hr fasted female CD-1(ICR) mouse assessed as pathological damage in lung at 2 g/kg, IG administered as single dose measured after 14 days by H and E staining based analysis; type: tissue-based; details: in vivo, po, 2000 mg/kg, 336 h, time 14 day
[25] = Acute toxicity in 12 hr fasted female CD-1(ICR) mouse assessed as pathological damage in kidney at 2 g/kg, IG administered as single dose measured after 14 days by H and E staining based analysis; type: tissue-based; details: in vivo, po, 2000 mg/kg, 336 h, time 14 day
[26] = MRT (0 to infinity) in Sprague-Dawley rat at 5 mg/kg, po measured after 0.083 to 24 hrs by LC-MS analysis; type: ADME, organism-based; details: in vivo, time 0.083-24 hrs
[27] = biological target: Voltage-gated inwardly rectifying potassium channel KCNH2 (Homo sapiens, UniProt Q12809); experiment: Inhibition of human ERG potassium channel transfected in CHO cells by automated patch clamp assay; type: toxicity, cell-based
Chain of Voltage-gated inwardly rectifying potassium channel KCNH2 (Q12809 whole entry): as above

[28] = Acute toxicity in 12 hr fasted female CD-1(ICR) mouse assessed as pathological damage in heart at 2 g/kg, IG administered as single dose measured after 14 days by H and E staining based analysis; type: tissue-based; details: in vivo, po, 2000 mg/kg, 336 h, time 14 day
[29] = Tmax in Sprague-Dawley rat at 5 mg/kg, po measured after 0.083 to 24 hrs by LC-MS analysis; type: ADME, organism-based; details: in vivo, time 0.083-24 hrs
[30] = Half life in Sprague-Dawley rat at 5 mg/kg, po measured after 0.083 to 24 hrs by LC-MS analysis; type: ADME, organism-based; details: in vivo, time 0.083-24 hrs
Cytochrome P450 2C9 = Cytochrome P450 2C9 (Homo sapiens, UniProt P11712); experiment: Inhibition of CYP2C9 in human liver microsomes using diclofenac as substrate incubated for 15 to 45 mins in presence of NADPH
Chain of Cytochrome P450 2C9 (P11712 whole entry): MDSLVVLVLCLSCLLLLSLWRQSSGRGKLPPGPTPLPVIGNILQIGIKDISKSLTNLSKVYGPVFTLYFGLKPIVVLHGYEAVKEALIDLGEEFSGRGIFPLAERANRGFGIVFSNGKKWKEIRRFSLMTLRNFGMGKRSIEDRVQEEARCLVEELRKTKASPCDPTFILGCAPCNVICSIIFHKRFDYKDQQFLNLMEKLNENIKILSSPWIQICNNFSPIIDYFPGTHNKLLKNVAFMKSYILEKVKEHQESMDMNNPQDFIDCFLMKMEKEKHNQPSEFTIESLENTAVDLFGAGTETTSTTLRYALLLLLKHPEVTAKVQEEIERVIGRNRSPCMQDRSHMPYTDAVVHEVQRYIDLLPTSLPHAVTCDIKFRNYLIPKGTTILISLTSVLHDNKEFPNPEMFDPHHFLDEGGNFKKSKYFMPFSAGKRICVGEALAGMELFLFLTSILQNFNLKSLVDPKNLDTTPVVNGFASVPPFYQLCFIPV

[31] = Acute toxicity in 12 hr fasted female CD-1(ICR) mouse assessed as changes in body weight at 2 g/kg, IG administered as single dose measured after 14 days; details: in vivo, po, 2000 mg/kg, 336 h, time 14 day
[32] = Acute toxicity in 12 hr fasted male CD-1(ICR) mouse assessed as pathological damage in brain at 2 g/kg, IG administered as single dose measured after 14 days by H and E staining based analysis; type: tissue-based; details: in vivo, po, 2000 mg/kg, 336 h, time 14 day
[33] = AUC (0 to infinity) in Sprague-Dawley rat at 1 mg/kg, iv measured after 0.083 to 24 hrs by LC-MS analysis; type: ADME, organism-based; parameters: dose 1 mg/kg, time 0.083-24 hrs, route iv; details: in vivo

Chain of Cytochrome P450 3A4 (P08684 whole entry): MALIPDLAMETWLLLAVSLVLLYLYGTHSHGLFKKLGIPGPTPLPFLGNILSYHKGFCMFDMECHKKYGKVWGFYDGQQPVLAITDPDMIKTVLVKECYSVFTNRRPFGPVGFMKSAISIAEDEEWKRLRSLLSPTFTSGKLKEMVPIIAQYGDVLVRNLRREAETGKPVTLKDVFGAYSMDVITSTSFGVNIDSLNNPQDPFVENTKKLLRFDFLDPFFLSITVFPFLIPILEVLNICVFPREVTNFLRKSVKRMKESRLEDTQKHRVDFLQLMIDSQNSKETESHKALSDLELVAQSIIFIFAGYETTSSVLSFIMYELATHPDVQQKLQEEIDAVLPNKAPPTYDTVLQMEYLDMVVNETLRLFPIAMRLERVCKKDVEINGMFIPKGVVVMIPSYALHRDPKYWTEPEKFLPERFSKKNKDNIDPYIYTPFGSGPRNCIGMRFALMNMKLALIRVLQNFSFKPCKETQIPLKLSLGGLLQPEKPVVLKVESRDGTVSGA

COc1cc(-c2ccc(C#N)cc2)ccc1Oc1cc(N)nc(Nc2ccc(C#N)cc2)n1
Activity [1]: Non-Toxic
IC50 (Cytochrome P450 3A4): > 50 µM
Activity [2]: Non-Toxic
EC50 [3]: 0.004 µM
Activity [4]: Non-Toxic
Activity [5]: Non-Toxic
Activity [6]: Non-Toxic
MRT inf [7]: 1.18 h
Activity [8]: Non-Toxic
Tmax [9]: 4.8 min
Activity [10]: Non-Toxic
Activity [11]: Non-Toxic
Cmax [12]: 329 ng/mL
Activity [13]: Non-Toxic
inhibition at 40 µM (hERG (KCNH2)): 35.9%
AUC(0-t) [14]: 326 ng·h/mL
half-life [15]: 1 h
EC50 [16]: 0.019 µM
selectivity ratio (in vitro): 63400
Activity [17]: Non-Toxic
EC50 [18]: 0.0019 µM
CC50 [19]: 120 µM
IC50 [20]: 0.036 µM
bioavailability [21]: 7.57%
Activity [22]: Non-Toxic
AUC(0-inf) [23]: 124 ng·h/mL
Activity [24]: Non-Toxic
Activity [25]: Non-Toxic
MRT inf [26]: 2.89 h
IC50 [27]: > 40 µM
Activity [28]: Non-Toxic
Tmax [29]: 0.83 h
half-life [30]: 2.33 h
IC50 (Cytochrome P450 2C9): 5.16 µM
Activity [31]: Non-Toxic
Activity [32]: Non-Toxic
AUC(0-inf) [33]: 329 ng·h/mL
